For 40 compounds, inhibition, Activity and EC50 results are on record in ChEMBL document CHEMBL4342413, “Structure-Activity Relationship Studies of a Novel Class of Transmission Blocking Antimalarials Targeting Male Gametes” (J Med Chem, 2020).

Activity calls are given as the source filed them. The calls are words filed in the database; no cut-off is given here.

The first data set concerns Plasmodium falciparum. Description: Antimalarial activity against Plasmodium falciparum infected in mosquitoes assessed as inhibition of oocyst formation at 10 uM added 30 mins before mosquito feed by standard membrane feeding assay. Type of data set: functional.
Conditions: not given
Take `O=S(=O)(NCC1(O)CCOc2ccccc21)c1ccc(Br)s1` (racemic): the inhibition (as a rule, the change of the read-out against control, counted positive when it falls) at 10 µM amounted to 99%.

Another data set has as its system HepG2. In words: Cytotoxicity against human HepG2 cells assessed as reduction in cell viability at 10 uM incubated for 48 hrs by Alamar Blue staining based fluorescence assay. Conditions: hepg2, 48 h. (Alamar Blue is a resazurin reagent that responds to reducing activity.)
As to `O=S(=O)(NCC1(O)CCOc2ccccc21)c1cccc(Br)c1` (racemic), the Activity entry was “Non-Toxic”.

As to `COC1(CNS(=O)(=O)c2cccc(Br)c2)CCOc2ccccc21` (racemic), the Activity entry is recorded as “Non-Toxic”.

Regarding `O=S(=O)(NCC1(O)CCOc2ccccc21)c1ccc(Br)s1` (racemic), the Activity entry was “Non-Toxic”.

For the compound `O=S(=O)(NCC1(O)CCOc2cc(F)ccc21)c1cccc(Br)c1` (racemic), the Activity result is recorded as “Non-Toxic”.

Another data set has as its system Plasmodium falciparum. Description: Antimalarial activity against Plasmodium falciparum NF54 strain male gametes in human RBC incubated for 48 hrs by dual gamete formation assay based HTS assay. Conditions: NF54, 48 h. Type of data set: functional, organism-based.
For the compound `O=S(=O)(NCC1(O)CCOc2ccccc21)c1ccc(Br)s1` (racemic), the EC50 (commonly the concentration at which the effect is half-maximal) amounted to 200 nM.

The compound `O=S(=O)(NCC1(O)CCOc2ccccc21)c1ccccc1Br` (racemic) gave an EC50 of 530 nM.

A further data set deals with Plasmodium falciparum. Description: Antimalarial activity against Plasmodium falciparum NF54 strain male gametes in human RBC assessed as induction of impairment of exflagellation of male gametes by dual gamete formation assay.
Conditions: not given
The data set is classed as functional, organism-based.
In the case of `O=S(=O)(NCC1(O)CCOc2ccccc21)c1ccc(Br)s1` (single isomer, unassigned; (-)), the concentration giving a half-maximal response (EC50) was 46 nM.

With `O=S(=O)(NCC1(O)CCOc2ccccc21)c1cccc(Br)c1` (racemic), the EC50 turned out to be 128 nM.

Consider `O=S(=O)(NCC1(O)CCOc2ccccc21)c1ccc(Br)s1` (single isomer, unassigned; (+)), for which the EC50 was over 1000 nM.

Take `COC1(CNS(=O)(=O)c2cccc(Br)c2)CCOc2ccccc21` (racemic): the EC50 was 149 nM.

For the compound `O=S(=O)(NCC1(O)CCOc2cc(F)ccc21)c1cccc(Br)c1` (single isomer, unassigned; (+)), the EC50 is over 1000 nM.

With `O=S(=O)(NCC1(O)CCOc2ccccc21)c1ccc(Br)s1` (racemic), the concentration for a half-maximal effect (EC50) was 130 to 292 nM.

Regarding `COC1(CNS(=O)(=O)c2cccc(Br)c2)CCOc2ccccc21` (single isomer, unassigned; (+)), the 50% effective concentration (EC50) is over 2000 nM.

For the compound `COC1(CNS(=O)(=O)c2cccc(Br)c2)CCOc2ccccc21` (stereo in doubt; (-)-74), the half-maximal effective concentration (EC50) is 59 nM.

Consider `O=S(=O)(NCC1(O)CCOc2cc(F)ccc21)c1cccc(Br)c1` (racemic), for which the EC50 worked out at 79 nM.

For the compound `O=S(=O)(NCC1(O)CCOc2ccccc21)c1cccc(Br)c1` (stereo in doubt; (-)-6), the EC50 stood at 18 nM.

For the compound `O=S(=O)(NCC1(O)CCOc2cc(F)ccc21)c1cccc(Br)c1` (single isomer, unassigned; (-)), the concentration giving a half-maximal response (EC50) was 51 nM.

On to `O=S(=O)(NCC1(O)CCOc2ccccc21)c1cccc(Br)c1` (single isomer, unassigned; (+)), for which the EC50 was over 2000 nM.

Staying with this data set, now noted: Plasmodium falciparum, NF54.
On to `O=S(=O)(NCC1(O)CCOc2ccccc21)c1ccccc1Cl` (racemic), for which the EC50 is over 1000 nM.

On to `O=S(=O)(NCC1(O)CCOc2ccccc21)c1cccc(Cl)c1` (racemic), for which the EC50 stood at 118 nM.

For `O=S(=O)(NCC1(O)CC(c2ccccc2)Oc2ccccc21)c1ccc(Br)s1` (racemic), the 50% effective concentration (EC50) was over 25000 nM.

For the compound `O=S(=O)(NCC1(O)CCOc2ccccc21)c1ccc(Cl)cc1` (racemic), the 50% effective concentration (EC50) is over 1000 nM.

With `O=S(=O)(NCC1(O)CCOc2ccc(O)cc21)c1cccc(Br)c1` (racemic), the concentration for a half-maximal effect (EC50) is over 10000 nM.

In the case of `COc1cccc2c1OCCC2(O)CNS(=O)(=O)c1cccc(Br)c1` (racemic), the concentration for a half-maximal effect (EC50) is over 25000 nM.

For the compound `N#Cc1ccc(S(=O)(=O)NCC2(O)CCOc3ccccc32)cc1` (racemic), the EC50 is over 25000 nM.

With `O=S(=O)(NCC1(O)CCOc2ccccc21)c1ccccc1` (racemic), the EC50 was found to be 470 nM.

For the compound `O=S(=O)(NCC1(F)CCOc2ccccc21)c1cccc(Br)c1` (racemic), the EC50 came out at 945 nM.

Take `O=S(=O)(NCC1(F)CCOc2ccccc21)c1ccc(Br)s1` (racemic): the 50% effective concentration (EC50) is over 1000 nM.

For the compound `O=S(=O)(NCC1(O)CCOc2ccc(Br)cc21)c1cccc(Br)c1` (racemic), the 50% effective concentration (EC50) is 785 nM.

With `O=S(=O)(NCC1(O)CCOc2ccccc21)c1ccccc1Br` (racemic), the concentration for a half-maximal effect (EC50) lay within 344 to 367 nM.

For the compound `O=S(=O)(NCC1(O)CCOc2ccccc21)c1sccc1Br` (racemic), the concentration giving a half-maximal response (EC50) worked out at 212 nM.

Consider `O=S(=O)(NCC1(O)CCOc2cc(F)ccc21)c1ccc(Br)s1` (racemic), for which the EC50 is 364 nM.

Regarding `O=S(=O)(NCC1(O)CC(c2ccccc2)Oc2ccccc21)c1cccc(Br)c1` (racemic), the EC50 is over 25000 nM.

With `O=S(=O)(NCC1=CCOc2ccccc21)c1ccc(Br)s1`, the concentration giving a half-maximal response (EC50) was over 25000 nM.

In the case of `C=CCOc1ccc2c(c1)C(O)(CNS(=O)(=O)c1cccc(Br)c1)CCO2` (racemic), the EC50 was over 25000 nM.

Regarding `COC1(CNS(=O)(=O)c2ccc(Br)s2)CCOc2ccccc21` (racemic), the EC50 was 354 nM.

For `O=S(=O)(NCC1(O)CCOc2ccc(Br)cc21)c1ccc(Br)s1` (racemic), the EC50 is over 1000 nM.

With `COc1ccc(S(=O)(=O)NCC2(O)CCOc3ccccc32)cc1` (racemic), the 50% effective concentration (EC50) was over 25000 nM.

For `COc1cccc2c1OCCC2(O)CNS(=O)(=O)c1ccc(Br)s1` (racemic), the EC50 is over 25000 nM.

For the compound `O=S(=O)(NCC1(O)CCOc2ccc(F)cc21)c1cccc(Br)c1` (racemic), the EC50 is 83 nM.

As to `CC(=O)c1cccc(S(=O)(=O)NCC2(O)CCOc3ccccc32)c1` (racemic), the EC50 was over 20000 nM.

Take `O=S(=O)(NCC1(O)CCOc2ccccc21)c1ccc(Br)cc1` (racemic): the EC50 was over 5000 nM.

Turning to `O=S(=O)(NCC1(O)CCOc2ccc(F)cc21)c1ccc(Br)s1` (racemic), the EC50 was 196 nM.

Regarding `O=S(=O)(NCC1CCOc2ccccc21)c1cccc(Br)c1` (racemic), the EC50 was over 10000 nM.

Take `O=S(=O)(NCC1CCOc2ccccc21)c1ccc(Br)s1` (racemic): the EC50 was over 10000 nM.

Another data set has as its system HepG2. In words: Cytotoxicity against human HepG2 cells assessed as reduction in cell viability at 50 uM incubated for 48 hrs by Alamar Blue staining based fluorescence assay.
Conditions: not given
The data set is classed as functional.
Consider `COc1cccc2c1C(=O)c1c(O)c3c(c(O)c1C2=O)C[C@@](O)(C(=O)CO)C[C@@H]3O[C@H]1C[C@H](N)[C@H](O)[C@H](C)O1`, for which the outcome was Active.
